No end group written: not given here.
Assays:
[1] = test system: yeast (Saccharomyces cerevisiae); experiment: Antimicrobial assay I, yeast assay in RPMI 1640; assay type: cell-based; conditions: RPMI 1640 media
[2] = test system: Staphylococcus aureus ATCC 6538; experiment: Antimicrobial assay I, MIC by OD measurement; assay type: cell-based; conditions: 37° C. for 24 hours, absorbance 620 nm
[3] = test system: Pseudomonas aeruginosa ATCC 9027; experiment: Antimicrobial assay I, MIC by OD measurement; assay type: cell-based; conditions: 37° C. for 24 hours, absorbance 620 nm
MCF7 = experiment: Anti-cancer assay, MTT, LD50; assay type: cell-based; conditions: MCF7 breast adenocarcinoma line, MTT, 24 hours with peptide
Source text: (§1) Numbers are LD50 values (μg/mL).

BMKC = experiment: Anti-cancer assay, MTT, LD50; assay type: cell-based; conditions: BMKC cloned melanoma line, 24 hours with peptide
Source text: as §1

HeLaS3 = experiment: Anti-cancer assay, MTT, LD50; assay type: cell-based; conditions: 24 hours with peptide, cervical carcinoma
Source text: as §1

SW480 = experiment: Anti-cancer assay, MTT, LD50; assay type: cell-based; conditions: SW480 colon adenocarcinoma line, 24 hours with peptide
Source text: as §1

H1299 = experiment: Anti-cancer assay, MTT, LD50; assay type: cell-based; conditions: 24 hours with peptide, lung large cell carcinoma
Source text: as §1

PC3 = experiment: Anti-cancer assay, MTT, LD50; assay type: cell-based; conditions: 24 hours with peptide, prostate adenocarcinoma
Source text: as §1

[4] = test system: human red blood cells (RBC); experiment: in vitro; assay type: cell-based; conditions: hemolytic assay, concentration at 50% hemolysis, 1 hour at 37° C.
WI38 = conditions: MTT, 24 hours with peptide; for WI38 LD50: normal fibroblast line; for LD50 WI38: WI38 normal lung fibroblast line

Row | Substance | yeast (MIC or MFC) [1] | staph6538 (MIC) [2] | paerug9027 (MIC) [3] | LD50 MCF7 (MCF7) | LD50 BMKC (BMKC) | HeLaS3 LD50 (HeLaS3) | LD50 SW480 (SW480) | H1299 LD50 (H1299) | PC3 LD50 (PC3) | LD50 [4] | WI38 LD50 (WI38) | LD50 WI38 (WI38)
1 | FGKGIGKVGKKLL-NH2 [P132] | > (> indicates greater than 200 μg/mL) | > (> indicates greater than 200 μg/mL) | 100 µg/mL | > (> indicates greater than 1000) | > (> indicates greater than 1000) | > (> indicates greater than 1000) | > (> indicates greater than 1000) | > (> indicates greater than 1000) | > (> indicates greater than 1000) | > (> indicates greater than 1000) | > (> indicates greater than 1000) | > (> indicates greater than 1000)
2 | FALAKALKKAL-NH2 [P166, FALAKALKKAL-NH2] | > (> indicates greater than 200 μg/mL) | > (> indicates greater than 200 μg/mL) | > (> indicates greater than 200 μg/mL) | > (> indicates greater than 1000) | > (> indicates greater than 1000) | > (> indicates greater than 1000) | > (> indicates greater than 1000) | > (> indicates greater than 1000) | > (> indicates greater than 1000) | > (> indicates greater than 1000) | > (> indicates greater than 1000) | > (> indicates greater than 1000)
3 | FAKLLAKLAKAKG-NH2 [P96] | > (> indicates greater than 200 μg/mL) | > (> indicates greater than 200 μg/mL) | > (> indicates greater than 200 μg/mL) | > (> indicates greater than 1000) | > (> indicates greater than 1000) | > (> indicates greater than 1000) | > (> indicates greater than 1000) | > (> indicates greater than 1000) | > (> indicates greater than 1000) | > (> indicates greater than 1000) | > (> indicates greater than 1000) | > (> indicates greater than 1000)
4 | FALKALKKAL-NH2 [P170, FALKALKKAL-NH2] | 100 µg/mL | 200 µg/mL | 100 µg/mL | 940 µg/mL | > (> indicates greater than 1000) | > (> indicates greater than 1000) | > (> indicates greater than 1000) | > (> indicates greater than 1000) | > (> indicates greater than 1000) | > (> indicates greater than 1000) | > (> indicates greater than 1000) | > (> indicates greater than 1000)
5 | FAKKLAKKAKLAKKL-NH2 [P77] | 200 µg/mL | 200 µg/mL | 100 µg/mL | > (> indicates greater than 1000) | 125 µg/mL | > (> indicates greater than 1000) | > (> indicates greater than 1000) | > (> indicates greater than 1000) | > (> indicates greater than 1000) | > (> indicates greater than 1000) | > (> indicates greater than 1000) | > (> indicates greater than 1000)
6 | FAKKALKALKKL-NH2 [P47] | 50 µg/mL | 200 µg/mL | 100 µg/mL | 575 µg/mL | 700 µg/mL | > (> indicates greater than 1000) | > (> indicates greater than 1000) | > (> indicates greater than 1000) | > (> indicates greater than 1000) | > (> indicates greater than 1000) | > (> indicates greater than 1000) | > (> indicates greater than 1000)
7 | FALAKKALKKAKKAL-NH2 [P40, FALAKKALKKAKKAL-NH2] | 100 µg/mL | 100 µg/mL | 25 µg/mL | 760 µg/mL | > (> indicates greater than 1000) | > (> indicates greater than 1000) | > (> indicates greater than 1000) | > (> indicates greater than 1000) | 435 µg/mL | > (> indicates greater than 1000) | > (> indicates greater than 1000) | > (> indicates greater than 1000)
8 | FAFAKIIAKIAKKII-NH2 [P140] | > (> indicates greater than 200 μg/mL) | > (> indicates greater than 200 μg/mL) | > (> indicates greater than 200 μg/mL) | > (> indicates greater than 1000) | > (> indicates greater than 1000) | 285 µg/mL | > (> indicates greater than 1000) | > (> indicates greater than 1000) | > (> indicates greater than 1000) | > (> indicates greater than 1000) | > (> indicates greater than 1000) | > (> indicates greater than 1000)
9 | KWKLF-NH2 [P131, KWKLF-NH2] | 100 µg/mL | 25 µg/mL | 10 µg/mL | 600 µg/mL | > (> indicates greater than 1000) | > (> indicates greater than 1000) | 555 µg/mL | > (> indicates greater than 1000) | > (> indicates greater than 1000) | > (> indicates greater than 1000) | > (> indicates greater than 1000) | > (> indicates greater than 1000)
10 | KAKLAKKALAKLL-NH2 [P149] | 200 µg/mL | 50 µg/mL | 100 µg/mL | > (> indicates greater than 1000) | > (> indicates greater than 1000) | > (> indicates greater than 1000) | > (> indicates greater than 1000) | > (> indicates greater than 1000) | > (> indicates greater than 1000) | > (> indicates greater than 1000) | > (> indicates greater than 1000) | > (> indicates greater than 1000)
11 | FAKLLAKLAKKEL-NH2 [P126] | > (> indicates greater than 200 μg/mL) | > (> indicates greater than 200 μg/mL) | > (> indicates greater than 200 μg/mL) | > (> indicates greater than 1000) | > (> indicates greater than 1000) | > (> indicates greater than 1000) | > (> indicates greater than 1000) | > (> indicates greater than 1000) | > (> indicates greater than 1000) | > (> indicates greater than 1000) | > (> indicates greater than 1000) | > (> indicates greater than 1000)

From patent US20050209157A1, “Short bioactive peptides and methods for their use” (priority 2001, published 2005)
